Earlier results as cited in patent US20250275917A1, “TOPICAL FOAMABLE PHARMACEUTICAL COMPOSITION” (EUROFARMA LABORATORIOS S.A., priority 2021, published 2025).

Details: systemic absorption

**Q.** For `Nc1cc(N2CCCCC2)nc(N)[n+]1[O-]` [Minoxidil], which “concentration associated with adverse effects” value is on record?
**A.** 20 ng/mL
